Measurements reported in patent US9199946B2, “Pyrimidinone carboxamide inhibitors of endothelial lipase” (BRISTOL-MYERS SQUIBB COMPANY, priority 2012, dated 2015).
pIC50: −log10 of the molar value. Like-named read-outs stand apart in the source and are kept apart here.

Molecular target: T1, Endothelial lipase (EL) (Homo sapiens, UniProt Q9Y5X9)
T1 construct: HT-1080 cells, which were transformed by RAGE technology (Athersys) to overexpress endogenous EL; endogenous in cells; conditioned medium used as the enzyme source
T1 sequence (Q9Y5X9 21-500): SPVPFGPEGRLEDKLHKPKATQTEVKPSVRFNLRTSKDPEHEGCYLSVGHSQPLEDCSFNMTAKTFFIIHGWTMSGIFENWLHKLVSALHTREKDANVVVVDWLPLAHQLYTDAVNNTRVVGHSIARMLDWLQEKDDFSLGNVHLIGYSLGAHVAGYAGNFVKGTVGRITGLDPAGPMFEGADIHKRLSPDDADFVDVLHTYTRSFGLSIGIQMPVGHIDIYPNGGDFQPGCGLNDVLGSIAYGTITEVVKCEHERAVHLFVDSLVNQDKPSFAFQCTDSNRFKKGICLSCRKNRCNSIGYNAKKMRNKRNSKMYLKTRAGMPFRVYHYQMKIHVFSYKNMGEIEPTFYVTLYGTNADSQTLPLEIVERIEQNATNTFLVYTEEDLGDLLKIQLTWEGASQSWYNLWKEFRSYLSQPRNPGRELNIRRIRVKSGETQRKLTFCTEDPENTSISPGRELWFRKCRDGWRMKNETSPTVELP
Test: Endothelial lipase (EL) enzymatic assay with fluorescent substrate A10070 in DMPG vesicles
Type: biochemical
Outline: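 EL activity was followed as a fluorescence rate (488/530 nm, reads every 20 s for 10 min, linear slope) on A10070 doped at 0.05 mole fraction into sonicated DMPG vesicles. Compound was first incubated 20 min at 37 °C, pH 8.0 HEPES/CaCl2 buffer, with conditioned media from EL-overexpressing HT-1080 cells.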

[1] = range observed in the EL assay, read-out: EL IC50 values
[2] = conditioned media from HT-1080 cells overexpressing endogenous EL, 20 min preincubation at 37° C., read-out: EL IC50

Structure (SMILES) | pIC50 [1] | pIC50 [2]
Nc1c(C(=O)N[C@H]2CC[C@@H](c3ccccc3)CC2)n(-c2ccc(Cl)c(Cl)c2)c(=O)[nH]c1=O [Example 204, 5-amino-3-(3,4-dichlorophenyl)-2,6 dioxo-N-(cis-4-phenylcyclohexyl)-1,2,3,6-tetrahydropyrimidine-4-carboxamide] | ≥ 5.00 | –
O=C(N[C@@H]1CCCc2ccccc21)c1[nH]c(=O)[nH]c(=O)c1O [Example 276, (R)-5-hydroxy-2,6-dioxo-N-(1,2,3,4-tetrahydronaphthalen-1-yl)-1,2,3,6-tetrahydropyrimidine-4-carboxamide] | ≥ 5.00 | –
Nc1c(C(=O)N[C@H]2CC[C@@H](NC(=O)c3nc4ccccc4s3)CC2)[nH]c(=O)[nH]c1=O [Example 117, N-(cis-4-(5-amino-2,6-dioxo-1,2,3,6-tetrahydropyrimidine-4-carboxamido)cyclohexyl)benzo[d] thiazole-2-carboxamide] | ≥ 5.00 | 5.92
Nc1c(C(=O)NC2CCC(c3ccccc3)c3ccccc32)[nH]c(=O)[nH]c1=O (stereo not shown) [Example 6, 5-amino-2,6-dioxo-N-(4-phenyl-1,2,3,4-tetrahydronaphthalen-1-yl)-1,2,3,6-tetrahydropyrimidine-4-carboxamide] | ≥ 5.00 | –
Nc1c(C(=O)N[C@H]2CC[C@@H](OCc3ccccc3)CC2)[nH]c(=O)[nH]c1=O [Example 95, 5-amino-N-(cis-4-(benzyloxy)cyclohexyl)-2,6-dioxo-1,2,3,6-tetrahydropyrimidine-4-carboxamide] | ≥ 5.00 | –
Nc1c(C(=O)N[C@H]2CCCc3c(OCC(F)(F)F)cccc32)[nH]c(=O)[nH]c1=O [Example 35, (S)-5-amino-2,6-dioxo-N-(5-(2,2,2-trifluoroethoxy)-1,2,3,4-tetrahydronaphthalen-1-yl)-1,2,3,6-tetrahydropyrimidine-4-carboxamide] | ≥ 5.00 | –
Nc1c(C(=O)N[C@@H]2CCN(c3ccccc3)C2)[nH]c(=O)[nH]c1=O [Example 191, (R)-5-amino-2,6-dioxo-N-(1-phenylpyrrolidin-3-yl)-1,2,3,6-tetrahydropyrimidine-4-carboxamide] | ≥ 5.00 | –
Nc1c(C(=O)N[C@@H]2CC[C@@H](c3ccc(Cl)c(Cl)c3)C2)[nH]c(=O)[nH]c1=O [Example 68, 5-amino-N-((1R,3R)-3-(3,4-dichlorophenyl)cyclopentyl)-2,6-dioxo-1,2,3,6-tetrahydropyrimidine-4-carboxamide] | ≥ 5.00 | –
O=C(N[C@H]1CC[C@@H](NC(=O)c2[nH]c(=O)[nH]c(=O)c2O)CC1)c1ccccc1 [Example 260, N-((1s,4s)-4-benzamidocyclohexyl)-5-hydroxy-2,6-dioxo-1,2,3,6-tetrahydropyrimidine-4-carboxamide] | ≥ 5.00 | –
Nc1c(C(=O)NC2CCCc3cc(OCC(F)(F)F)ccc32)[nH]c(=O)[nH]c1=O (stereo not shown) [Example 22, 5-amino-2,6-dioxo-N-(6-(2,2,2-trifluoroethoxy)-1,2,3,4-tetrahydronaphthalen-1-yl)-1,2,3,6-tetrahydropyrimidine-4-carboxamide] | ≥ 5.00 | –
Nc1c(C(=O)N[C@H]2CC[C@@H](c3ccc(-c4ccc(Cl)cc4)cc3)C2)[nH]c(=O)[nH]c1=O [Example 170, 5-amino-N-((1S,3R)-3-(4′-chlorobiphenyl-4-yl)cyclopentyl)-2,6-dioxo-1,2,3,6-tetrahydropyrimidine-4 carboxamide] | ≥ 5.00 | –
CC(C)Cn1cc(-c2ccc([C@@H]3CC[C@H](NC(=O)c4[nH]c(=O)[nH]c(=O)c4N)C3)cc2)cn1 [Example 172, 5-amino-N-((1S,3R)-3-(4-(1-isobutyl-1H-pyrazol-4-yl)phenyl)cyclopentyl)-2,6-dioxo-1,2,3,6-tetrahydropyrimidine-4-carboxamide] | ≥ 5.00 | –
Nc1c(C(=O)N[C@@H]2CCCc3ccc(C(F)(F)F)cc32)[nH]c(=O)[nH]c1=O [Example 53, (R)-5-amino-2,6-dioxo-N-(7-(trifluoromethyl)-1,2,3,4-tetrahydronaphthalen-1-yl)-1,2,3,6-tetrahydropyrimidine-4-carboxamide] | ≥ 5.00 | 7.74
COc1ccccc1C1CCC(NC(=O)c2[nH]c(=O)[nH]c(=O)c2N)C1 (stereo not shown) [Example 141, 5-amino-N-(3-(2-methoxyphenyl)cyclopentyl)-2,6-dioxo-1,2,3,6-tetrahydropyrimidine-4-carboxamide] | ≥ 5.00 | –
Nc1c(C(=O)N[C@@H]2CCCc3c(Nc4ccccc4)cccc32)[nH]c(=O)[nH]c1=O [Example 126, (R)-5-amino-2,6-dioxo-N-(5-(phenylamino)-1,2,3,4-tetrahydronaphthalen-1-yl)-1,2,3,6-tetrahydropyrimidine-4-carboxamide] | ≥ 5.00 | –
Nc1c(C(=O)NC2CCC(c3ccc(OCc4ccccc4)cc3)C2)[nH]c(=O)[nH]c1=O (single isomer, unassigned) [Example 151, 5-amino-N-(3-(4-(benzyloxy)phenyl)cyclopentyl)-2,6-dioxo-1,2,3,6-tetrahydropyrimidine-4-carboxamide] | ≥ 5.00 | –
O=C(N[C@H]1CC[C@@H](c2ccccc2)CC1)c1[nH]c(=O)[nH]c(=O)c1NCc1ccccc1C(F)(F)F [Example 215, 2,6-dioxo-N-(cis-4-phenylcyclohexyl)-5-(2-(trifluoromethyl)benzylamino)-1,2,3,6-tetrahydropyrimidine-4-carboxamide] | ≥ 5.00 | –
Nc1c(C(=O)N[C@H]2CC[C@@H](c3cccc(C(F)(F)F)c3)CC2)[nH]c(=O)[nH]c1=O [Example 30, 5-amino-2,6-dioxo-N-(cis-4-(3-(trifluoromethyl)phenyl)cyclohexyl)-1,2,3,6-tetrahydropyrimidine-4-carboxamide] | ≥ 5.00 | –
Nc1c(C(=O)N[C@H]2CC[C@@H](NC(=O)c3cccc(OCc4ccccc4)c3)CC2)[nH]c(=O)[nH]c1=O [Example 122, 5-amino-N-(cis-4-(3-(benzyloxy)benzamido)cyclohexyl)-2,6-dioxo-1,2,3,6-tetrahydropyrimidine-4-carboxamide] | ≥ 5.00 | –
O=C(N[C@H]1CC[C@@H](NC(=O)c2[nH]c(=O)[nH]c(=O)c2O)CC1)OCc1ccccc1 [Example 281, benzyl cis-4-(5-hydroxy-2,6-dioxo-1,2,3,6-tetrahydropyrimidine-4-carboxamido)cyclohexylcarbamate] | ≥ 5.00 | 6.06
Nc1c(C(=O)NC2CCC(c3cccc(OCc4ccccc4)c3)C2)[nH]c(=O)[nH]c1=O (stereo not shown) [Example 158, 5-amino-N-(3-(3-(benzyloxy)phenyl)cyclopentyl)-2,6-dioxo-1,2,3,6-tetrahydropyrimidine-4-carboxamide] | – | 6.28
Nc1c(C(=O)NC2CCN(c3ccccc3)C2)[nH]c(=O)[nH]c1=O (stereo not shown) [Example 182, 5-amino-2,6-dioxo-N-(1-phenylpyrrolidin-3-yl)-1,2,3,6-tetrahydropyrimidine-4-carboxamide] | ≥ 5.00 | –
O=C(N[C@H]1CC[C@@H](c2ccccc2)CC1)c1[nH]c(=O)[nH]c(=O)c1NCCCn1ccnc1 [Example 216, 5-(3-(1H-imidazol-1-yl)propylamino)-2,6-dioxo-N-(cis-4-phenylcyclohexyl)-1,2,3,6-tetrahydropyrimidine-4-carboxamide] | ≥ 5.00 | 5.46
O=C(N[C@H]1CC[C@@H](c2ccccc2)CC1)c1[nH]c(=O)[nH]c(=O)c1NCC(F)(F)F [Example 228, 2,6-dioxo-N-(cis-4-phenylcyclohexyl)-5-(2,2,2-trifluoroethylamino)-1,2,3,6-tetrahydropyrimidine-4-carboxamide] | ≥ 5.00 | –
Cc1ccc(S(=O)(=O)Nc2ccc(C3CCCC(NC(=O)c4[nH]c(=O)[nH]c(=O)c4N)C3)cc2)cc1 (stereo not shown) [Example 128, 5-amino-N-(3-(4-(4-methylphenylsulfonamido)phenyl)cyclohexyl)-2,6-dioxo-1,2,3,6-tetrahydropyrimidine-4-carboxamide] | ≥ 5.00 | 7.89
O=C(N[C@H]1CC[C@@H](c2ccccc2)CC1)c1[nH]c(=O)[nH]c(=O)c1NCc1ccncc1 [Example 227, 2,6-dioxo-N-(cis-4-phenylcyclohexyl)-5-(pyridin-4-ylmethylamino)-1,2,3,6-tetrahydropyrimidine-4-carboxamide] | ≥ 5.00 | –
Nc1c(C(=O)N[C@@H]2CC[C@@H](c3ccccc3)c3ccccc32)[nH]c(=O)[nH]c1=O [Example 20, 5-amino-2,6-dioxo-N-((1R,4S)-4-phenyl-1,2,3,4-tetrahydronaphthalen-1-yl)-1,2,3,6-tetrahydropyrimidine-4-carboxamide] | ≥ 5.00 | –
O=C(N[C@@H]1CC[C@@H](C(=O)N[C@H]2CCCc3ccccc32)C1)c1[nH]c(=O)[nH]c(=O)c1O [Example 298, 5-hydroxy-2,6-dioxo-N-((1R,3R)-3-((S)-1,2,3,4-tetrahydronaphthalen-1-ylcarbamoyl)cyclopentyl)-1,2,3,6-tetrahydropyrimidine-4-carboxamide] | ≥ 5.00 | –
O=C(N[C@@H]1CCCc2cc(OCC(F)(F)F)ccc21)c1[nH]c(=O)[nH]c(=O)c1O [Example 256, (R)-5-hydroxy-2,6-dioxo-N-(6-(2,2,2-trifluoroethoxy)-1,2,3,4-tetrahydronaphthalen-1-yl)-1,2,3,6-tetrahydropyrimidine-4-carboxamide] | ≥ 5.00 | –
